ChEMBL document CHEMBL1764986, “Per-N-methylated analogues of an antitumor bicyclic hexapeptide RA-VII” (Bioorg Med Chem, 2011)
pIC50: −log10 of the molar value.

What follows are compounds tested on P388 (assay: Cytotoxicity against mouse P388 cells).
Format: functional, cell-based

First: COc1ccc(C[C@H]2C(=O)N(C)[C@@H](C)C(=O)N(C)[C@H]3Cc4ccc(cc4)Oc4cc(ccc4OC)C[C@@H](C(=O)N(C)[C@H](C)C(=O)N[C@@H](C)C(=O)N2C)N(C)C3=O)cc1
Second: COc1ccc(C[C@H]2C(=O)N(C)[C@@H](C)C(=O)N(C)[C@H]3Cc4ccc(cc4)Oc4cc(ccc4OC)C[C@@H](C(=O)N(C)[C@H](C)C(=O)N(C)[C@@H](C)C(=O)N2C)N(C)C3=O)cc1
The pIC50 of the first is 0.51 log units lower: 5.00 for the first, 5.51 for the second.

Compared with COc1ccc(C[C@H]2C(=O)N[C@@H](C)C(=O)N(C)[C@H]3Cc4ccc(cc4)Oc4cc(ccc4OC)C[C@@H](C(=O)N[C@H](C)C(=O)N(N)[C@@H](C)C(=O)N2C)N(C)C3=O)cc1, COc1ccc(C[C@H]2C(=O)N[C@@H](C)C(=O)N(C)[C@H]3Cc4ccc(cc4)Oc4cc(ccc4OC)C[C@@H](C(=O)N[C@H](C)C(=O)N[C@@H](C)C(=O)N2C)N(C)C3=O)cc1 is 0.42 log units higher in pIC50: 8.24 for the first, 8.66 for the second. The second is the more potent here.

Going from COc1ccc(C[C@H]2C(=O)N(C)[C@@H](C)C(=O)N(C)[C@H]3Cc4ccc(cc4)Oc4cc(c(Br)cc4OC)C[C@@H](C(=O)N(C)[C@H](C)C(=O)N(C)[C@@H](C)C(=O)N2C)N(C)C3=O)cc1 to COc1ccc(C[C@H]2C(=O)N(C)[C@@H](C)C(=O)N(C)[C@H]3Cc4ccc(cc4)Oc4cc(ccc4OC)C[C@@H](C(=O)N(C)[C@H](C)C(=O)N(N)[C@@H](C)C(=O)N2C)N(C)C3=O)cc1, the pIC50 rises from under 3.96 to 4.31.
